Source: patent US6994551B2, “Stable self-etching primer and adhesive bonding resin compositions, systems, and methods” (Bisco, Inc., priority 2002, dated 2006)
Where two headings read alike, the source gives them in different places.

Procedure: Several experiments were performed to evaluate the solubility of Bis-MEP in various solvent systems.

C=C(C)C(=O)OCCOP(=O)(O)OCCOC(=O)C(=C)C [Bis-MEP, Bis-[2-(methacryloyloxy)ethyl]phosphate]
appearance of mixture (0.67 weight percent in water): did not dissolve
appearance of mixture (2 weight percent mixture in water): did not dissolve
appearance of mixture (10 weight percent in water (no ethanol)): not homogeneous
appearance of mixture (14.72 weight percent in ethanol 34.40 / water 50.88 weight percent, room temperature): clear solution
appearance of mixture (20 weight percent in water (no ethanol)): not homogeneous
